From patent US4714706A, “Pyridyloxy derivatives and their use as insecticides” (Sumitomo Chemical Company, Limited, priority 1985, dated 1987)
Where two headings read alike, the source gives them in different places.

Key:
[1] = tested on: common mosquito (Culex pipiens pallens); experiment: Rate of emergence of last instar larvae of common mosquito reared 7 days in treated water (Test Example 1); assay type: in vivo; conditions: 3.5 ppm
Method: An emulsifiable concentrate prepared according to Formulation Example 1 was diluted with water to make a 400 fold dilution. The dilution (0.7 ml) was added to 100 ml of distilled water. Last instar larvae of common mosquito (Culex pipiens pallens) were released therein and reared for 7 days until their emergence. The rate of emergence was observed according to the following criteria: […]

[2] = tested on: housefly (Musca domestica); experiment: Emergence inhibition of housefly larvae reared in treated artificial culture (Test Example 2); assay type: in vivo; conditions: read-out: Emergence inhibition
Method: Powdered animal feed (2 g) was thoroughly mixed with bran (14 g). An emulsifiable concentrate prepared according to Formulation Example 1 was diluted with water to a designed concentration and the dilution was added to the above mixture. The resultant mixture was stirred well to make an artificial culture. Thirty larvae of housefly (Musca domestica) were reared therein until their pupation. The obtained pupae were placed into a plastic cup, and the rate of emergence was determined. According to the following equation, the emergence inhibition (%) was calculated: [formula]

[3] = last instar larvae of Culex pipiens pallens, reared 7 days
[4] = 0.3 ppm, Musca domestica larvae

For `COC(C)(C)CCCC(C)C/C=C/C(C)=C/C(=O)OC(C)C` (stereo not drawn) [(a), methoprene, reference compound], the Rate of emergence ([1]; 168 h) was “A (less than 10%)”, the inhibition at 0.3 ppm ([2]; Musca domestica) was 2% and the inhibition at 1 ppm ([2]; Musca domestica) was 13%. For the same compound, the inhibition at 3 ppm ([2]; Musca domestica) was 60%.

For `CC(C)COc1ccc(OCCOc2ccccn2)cc1` [Compound No. 2], the Rate of emergence [1, 3] was “A (less than 10%)”, the inhibition at 0.3 ppm [2, 4] was 3% and the inhibition at 1 ppm ([2]; 1 ppm, Musca domestica larvae) was 42%. For the same compound, the inhibition at 3 ppm ([2]; 3 ppm, Musca domestica larvae) was 100%.

With `CC(C)CCOc1ccc(OCCOc2ccccn2)cc1` [Compound No. 7] the Rate of emergence [1, 3] was “A (less than 10%)”, the inhibition at 0.3 ppm [2, 4] was 31% and the inhibition at 1 ppm ([2]; 1 ppm, Musca domestica larvae) was 87%. It also gave an inhibition at 3 ppm ([2]; 3 ppm, Musca domestica larvae) of 100%.

In the case of `CCCCOc1ccc(OCCOc2ccccn2)cc1` [Compound No. 9], the Rate of emergence [1, 3] is reported as “A (less than 10%)”.

In the case of `CC(C)CCOc1ccc(OCCSc2ccccn2)cc1` [Compound No. 22], the Rate of emergence [1, 3] is reported as “A (less than 10%)”.

With `CC(C)COCc1ccc(OCCOc2nccs2)cc1` [Compound No. 29] the Rate of emergence [1, 3] was “A (less than 10%)”, the inhibition at 0.3 ppm [2, 4] was 100% and the inhibition at 1 ppm ([2]; 1 ppm, Musca domestica larvae) was 100%. The inhibition at 3 ppm ([2]; 3 ppm, Musca domestica larvae) was 100%.

With `COC(C)(C)CCCC(C)CCCCOc1ccccn1` (stereo not drawn) [compound 1] the Rate of emergence [1, 3] was “A (less than 10%)”.

With `COC(C)(C)COc1ccc(OCCOc2ccccn2)cc1` [compound 3] the Rate of emergence [1, 3] was “A (less than 10%)”.

With `CC(C)CCCC(C)CCCCOc1ncccn1` (stereo not drawn) [compound 4] the Rate of emergence [1, 3] was “A (less than 10%)”.

With `C=C(C)COc1ccc(OCCOc2ccccn2)cc1` [compound 5] the Rate of emergence [1, 3] was “A (less than 10%)”.

For `C=CCOc1ccc(OCCOc2ccccn2)cc1` [compound 6], the Rate of emergence [1, 3] was “A (less than 10%)”.

For `CCOc1ccc(OCCOc2ccccn2)cc1` [compound 8], the Rate of emergence [1, 3] was “A (less than 10%)”.

With `CCCOc1ccc(OCCOc2ccccn2)cc1` [compound 10] the Rate of emergence [1, 3] was “A (less than 10%)”.

`CCCCCOc1ccc(OCCOc2ccccn2)cc1` [compound 11] was tested, and the Rate of emergence [1, 3] was “A (less than 10%)”.

With `CCC(C)COc1ccc(OCCOc2ccccn2)cc1` (stereo not drawn) [compound 12] the Rate of emergence [1, 3] was “A (less than 10%)”, the inhibition at 0.3 ppm [2, 4] was 0% and the inhibition at 1 ppm ([2]; 1 ppm, Musca domestica larvae) was 20%. The inhibition at 3 ppm ([2]; 3 ppm, Musca domestica larvae) was 83%.

`CC(C)(C)CCOc1ccc(OCCOc2ccccn2)cc1` [compound 13] was tested, and the Rate of emergence [1, 3] was “A (less than 10%)”.

`CC(C)(C)COc1ccc(OCCOc2ccccn2)cc1` [compound 14] was tested, and the Rate of emergence [1, 3] was “A (less than 10%)”.

With `CC(C)CCOc1ccc(OCC(C)Oc2ccccn2)cc1` (stereo not drawn) [compound 15] the Rate of emergence [1, 3] was “A (less than 10%)”, the inhibition at 0.3 ppm [2, 4] was 0% and the inhibition at 1 ppm ([2]; 1 ppm, Musca domestica larvae) was 43%. For the same compound, the inhibition at 3 ppm ([2]; 3 ppm, Musca domestica larvae) was 93%.

For `CC(C)CCOc1ccc(OCCOc2nccs2)cc1` [compound 16], the Rate of emergence [1, 3] was “A (less than 10%)”, the inhibition at 0.3 ppm [2, 4] was 45% and the inhibition at 1 ppm ([2]; 1 ppm, Musca domestica larvae) was 96%. It also gave an inhibition at 3 ppm ([2]; 3 ppm, Musca domestica larvae) of 100%.

With `CC(C)CCOc1ccc(OC(C)COc2ncccn2)cc1` (stereo not drawn) [compound 17] the Rate of emergence [1, 3] was “A (less than 10%)”.

With `CC(C)CCOc1ccc(OC(C)COc2ccccn2)cc1` (stereo not drawn) [compound 18] the Rate of emergence [1, 3] was “A (less than 10%)”.

With `CC(C)CCOc1ccc(OCC(C)Oc2ncccn2)cc1` (stereo not drawn) [compound 19] the Rate of emergence [1, 3] was “A (less than 10%)”.

`CC(C)CCOc1ccc(OCCOc2ncccn2)cc1` [compound 20] was tested, and the Rate of emergence [1, 3] was “A (less than 10%)”.

With `CC(C)CCOc1ccc(OCCSC2=NCCS2)cc1` [compound 21] the Rate of emergence [1, 3] was “A (less than 10%)”.

In the case of `CC(C)CCOc1ccc(OCCSc2ncccn2)cc1` [compound 23], the Rate of emergence [1, 3] is reported as “A (less than 10%)”.

With `CC(C)CCOc1ccc(OC(C)COc2nccs2)cc1` (stereo not drawn) [compound 24] the Rate of emergence [1, 3] was “A (less than 10%)”.

`CC(C)CCOc1ccc(OCC(C)Oc2nccs2)cc1` (stereo not drawn) [compound 25] was tested, and the Rate of emergence [1, 3] was “A (less than 10%)”, the inhibition at 0.3 ppm [2, 4] was 8% and the inhibition at 1 ppm ([2]; 1 ppm, Musca domestica larvae) was 58%. It also gave an inhibition at 3 ppm ([2]; 3 ppm, Musca domestica larvae) of 100%.

With `CC(C)COc1ccc(OCCOc2nccs2)cc1` [compound 26] the Rate of emergence [1, 3] was “A (less than 10%)”, the inhibition at 0.3 ppm [2, 4] was 11% and the inhibition at 1 ppm ([2]; 1 ppm, Musca domestica larvae) was 61%. It also gave an inhibition at 3 ppm ([2]; 3 ppm, Musca domestica larvae) of 100%.

With `COC(C)(C)COc1ccc(OCCOc2nccs2)cc1` [compound 27] the Rate of emergence [1, 3] was “A (less than 10%)”.

In the case of `CC(C)COCc1ccc(OCCOc2ccccn2)cc1` [compound 28], the Rate of emergence [1, 3] is reported as “A (less than 10%)”, the inhibition at 0.3 ppm [2, 4] is reported as 93% and the inhibition at 1 ppm ([2]; 1 ppm, Musca domestica larvae) is reported as 100%. It also gave an inhibition at 3 ppm ([2]; 3 ppm, Musca domestica larvae) of 100%.

For `CC(C)CCOc1ccc(OCCOc2nccs2)cc1Cl` [compound 30], the Rate of emergence [1, 3] was “A (less than 10%)”.

For `Cc1cc(OCCOc2nccs2)cc(C)c1OCCC(C)C` [compound 31], the Rate of emergence [1, 3] was “A (less than 10%)”.

For `CC(C)CCOc1ccc(OCCOc2ccccn2)cc1Cl` [compound 32], the Rate of emergence [1, 3] was “A (less than 10%)”, the inhibition at 0.3 ppm [2, 4] was 3% and the inhibition at 1 ppm ([2]; 1 ppm, Musca domestica larvae) was 56%. The inhibition at 3 ppm ([2]; 3 ppm, Musca domestica larvae) was 94%.

For `Cc1cc(OCCOc2ccccn2)cc(C)c1OCCC(C)C` [compound 33], the Rate of emergence [1, 3] was “A (less than 10%)”.

With `CC(C)CCCc1ccc(OCCOc2ccccn2)cc1` [compound 34] the Rate of emergence [1, 3] was “A (less than 10%)”, the inhibition at 0.3 ppm [2, 4] was 41% and the inhibition at 1 ppm ([2]; 1 ppm, Musca domestica larvae) was 67%. It also gave an inhibition at 3 ppm ([2]; 3 ppm, Musca domestica larvae) of 100%.

For `CC(C)CCCc1ccc(OCCOc2nccs2)cc1` [compound 35], the Rate of emergence [1, 3] was “A (less than 10%)”, the inhibition at 0.3 ppm [2, 4] was 51% and the inhibition at 1 ppm ([2]; 1 ppm, Musca domestica larvae) was 100%. It also gave an inhibition at 3 ppm ([2]; 3 ppm, Musca domestica larvae) of 100%.
